Assay results published in US20120172292A1, “METHOD FOR PROTECTION OF ANTIMICROBIAL AND ANTICANCER DRUGS FROM INACTIVATION BY NITRIC OXIDE” (NEW YORK UNIVERSITY, priority 2009, published 2012).
Values joined by “and” are separate entries in the source; they are usually repeats but may differ in a detail not shown here. Identical values can stand only once.

How the values were obtained:
B.subtilis [1] = format: cell-based
Streptococcus C203 = settings: cited from earlier work
B.anthracis [2] = format: cell-based; settings: CuFL 20 μM
B.anthracis [3] = format: cell-based
B.subtilis 6051 and Δnos = format: cell-based; settings: 25 μg/ml cefuroxime
B. subtilis = format: cell-based
S.aureus 4220 and Δnos = format: cell-based; settings: 0.4 μg/ml CEF
S. aureus = settings: cited from earlier work
Streptococcus = settings: cited from earlier work
B.subtilis [4] = assay: Growth of B.subtilis with ACR or AO premixed with NO donor; format: cell-based

In the case of `c1ccc(-c2ccccn2)nc1` [bipyridyl], the “effect of pretreatment on toxicity of ACR” value (B.subtilis [1]) is reported as “substantially decreased the toxicity of ACR”.
In the case of `COc1cc2c(N)c3ccc([N+](=O)[O-])cc3[n+]([O-])c2cc1OC` [9-Amino-2,3-dimethoxy-6-nitroacridine 10-oxides], the MIC (Streptococcus C203) is given as 20 nM and ~6 ng/ml.
With `COc1cc(NS(C)(=O)=O)ccc1Nc1c2ccccc2nc2ccccc12` [AMSAcrine] the “cell survival, AMSAcrine preincubated with exogenous NO versus AMSAcrine alone” value (HepG2 human hepatocytes; 20 μM AMSAcrine, 100 μM MAHMA NONOate, viability 24 hours later) was 5.5 fold.
With `CO/N=C(\C(=O)N[C@@H]1C(=O)N2C(C(=O)O)=C(COC(N)=O)CS[C@H]12)c1ccco1` [cefuroxime] the “NO production after antibiotic challenge” value (B.anthracis [2]) was “greatly stimulated NO production”, the “killing of nos deficient versus wt cells” value (B.anthracis [3]) was “much more efficiently than wt cells” and the “killing of nos deficient versus wt cells” value (B.subtilis 6051 and Δnos) was “much more efficiently than wt cells”. The “end products of NO oxidation (nitrite/nitrate) in growing culture after challenge” value (B. subtilis) was “increase” and the “growth inhibition of nos-deficient versus wild type cells” value (S.aureus 4220 and Δnos) was “much greater extent”.
For `Cc1cc2cc3ccc(N(C)C)cc3[n+](C)c2cc1N.[Cl-]` [Flavicid], the MIC (S. aureus) is listed as 10 μM and ~2.6 μg/ml.
For `Nc1c2ccccc2nc2cc([N+](=O)[O-])ccc12` [3-nitro-9-aminoacridine], the MIC (Streptococcus) is listed as 1.5 μM and ~0.4 μg/ml.
In the case of `CN(C)c1ccc2cc3ccc(N(C)C)cc3nc2c1` [AO, acridine orange], the “effect of NO treatment on antibacterial activity” value (B.subtilis [4]) is reported as “unaffected by NO treatment” and the “antibacterial effect compared with ACR” value (B.subtilis [4]; 10 μg/ml) is reported as “significantly less than that of ACR”.
With `COC(=O)[C@@H](N)CCCNC(=N)N[N+](=O)[O-]` [L-NAME, N G -nitro-L-arginine methyl ester] the “sensitivity of hepatocytes to AMSAcrine after inhibition of cellular NOS” value (HepG2 human hepatocytes; 4 mM L-NAME 8 hours prior to 20 μM AMSAcrine) was “increased sensitization”.
